Read-outs that look alike come from different tables or passages of the source.
Legend:
human TRPA1 = molecular target: T1, human TRPA1 (Homo sapiens, UniProt O75762, K186N/R3C/R58T); assay: Intracellular calcium (Fluo-4, FLIPR) activation of TRPA1 cells by GRAS compounds; type: cell-based; details: for activation at 100 µM / activation at 1000 µM: read-out: A1 activation, % of agonist value;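 for all read-outs here: TRPA1-expressing cells, fluorescence read on a FLIPR Tetra (ex 488 nm, em 514 nm) every 2 s for 10 min after compound addition, baseline subtracted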
T1 construct: expressed in transfected cells; pcDNA3 control cells
T1 sequence (O75762 whole entry R3C/R58T/K186N): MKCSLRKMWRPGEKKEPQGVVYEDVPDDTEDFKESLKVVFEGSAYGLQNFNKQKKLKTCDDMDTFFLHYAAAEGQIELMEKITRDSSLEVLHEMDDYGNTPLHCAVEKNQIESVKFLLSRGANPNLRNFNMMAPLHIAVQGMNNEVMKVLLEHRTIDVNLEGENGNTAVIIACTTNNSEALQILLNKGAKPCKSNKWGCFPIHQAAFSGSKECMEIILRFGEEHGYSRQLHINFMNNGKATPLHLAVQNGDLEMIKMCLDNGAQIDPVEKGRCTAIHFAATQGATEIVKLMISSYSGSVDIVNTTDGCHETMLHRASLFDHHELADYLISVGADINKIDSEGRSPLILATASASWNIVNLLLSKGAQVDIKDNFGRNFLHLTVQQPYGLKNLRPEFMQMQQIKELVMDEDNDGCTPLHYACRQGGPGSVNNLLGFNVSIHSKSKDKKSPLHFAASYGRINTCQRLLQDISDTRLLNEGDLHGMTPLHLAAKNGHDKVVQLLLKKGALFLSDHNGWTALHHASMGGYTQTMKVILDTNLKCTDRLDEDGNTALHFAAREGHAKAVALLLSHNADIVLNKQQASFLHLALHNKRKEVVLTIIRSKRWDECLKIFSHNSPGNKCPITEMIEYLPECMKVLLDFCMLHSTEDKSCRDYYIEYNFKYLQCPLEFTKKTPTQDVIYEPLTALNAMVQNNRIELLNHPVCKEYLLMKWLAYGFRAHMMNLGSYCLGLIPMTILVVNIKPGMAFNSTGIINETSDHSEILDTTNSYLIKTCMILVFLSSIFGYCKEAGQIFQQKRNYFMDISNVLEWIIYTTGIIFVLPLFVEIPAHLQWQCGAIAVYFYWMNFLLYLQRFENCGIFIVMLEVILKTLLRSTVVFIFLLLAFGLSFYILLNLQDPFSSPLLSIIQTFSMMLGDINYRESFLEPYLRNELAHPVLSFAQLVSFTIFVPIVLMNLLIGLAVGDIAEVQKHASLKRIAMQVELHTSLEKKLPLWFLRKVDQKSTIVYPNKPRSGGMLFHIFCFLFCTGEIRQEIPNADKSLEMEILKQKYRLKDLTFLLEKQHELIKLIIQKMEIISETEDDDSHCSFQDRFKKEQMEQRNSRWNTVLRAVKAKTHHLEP

human TRPV1 = molecular target: T2, human TRPV1 (Homo sapiens, UniProt Q8NER1, M315I/T336M); assay: Intracellular calcium (Fluo-4, FLIPR) activation of TRPV1 cells by GRAS compounds; type: cell-based; details: for activation at 100 µM / activation at 1000 µM: read-out: V1 activation, % of agonist value;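 for all read-outs here: TRPV1-expressing cells, FLIPR fluorescence at 488/514 nm with baseline subtracted, sampled every 2 s for 10 min after adding compound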
T2 construct: expressed in transfected cells; pcDNA3 control cells
T2 sequence (Q8NER1 whole entry M315I/T336M): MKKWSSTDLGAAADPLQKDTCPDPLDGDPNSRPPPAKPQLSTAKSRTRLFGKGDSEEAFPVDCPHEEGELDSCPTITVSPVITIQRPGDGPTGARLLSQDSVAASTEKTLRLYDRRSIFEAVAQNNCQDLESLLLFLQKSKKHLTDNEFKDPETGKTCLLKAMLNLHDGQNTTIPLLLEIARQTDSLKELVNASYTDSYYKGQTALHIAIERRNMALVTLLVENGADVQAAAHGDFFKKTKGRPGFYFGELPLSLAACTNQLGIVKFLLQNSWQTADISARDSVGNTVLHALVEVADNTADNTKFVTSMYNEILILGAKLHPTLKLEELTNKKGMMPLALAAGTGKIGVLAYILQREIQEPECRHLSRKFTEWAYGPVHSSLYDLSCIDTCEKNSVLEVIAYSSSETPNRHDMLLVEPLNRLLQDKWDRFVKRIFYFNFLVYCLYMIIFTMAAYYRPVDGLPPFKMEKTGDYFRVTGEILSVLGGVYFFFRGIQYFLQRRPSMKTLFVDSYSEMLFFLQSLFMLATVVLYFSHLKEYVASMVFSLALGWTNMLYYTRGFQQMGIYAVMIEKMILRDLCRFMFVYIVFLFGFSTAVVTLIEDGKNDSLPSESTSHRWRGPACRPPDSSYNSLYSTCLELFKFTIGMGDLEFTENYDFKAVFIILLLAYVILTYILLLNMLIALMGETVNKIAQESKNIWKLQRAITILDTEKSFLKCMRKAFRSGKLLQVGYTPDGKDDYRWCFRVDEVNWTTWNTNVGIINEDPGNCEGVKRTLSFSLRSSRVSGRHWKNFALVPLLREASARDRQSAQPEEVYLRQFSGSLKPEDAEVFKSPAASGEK

TRPA1V1 = assay: Intracellular calcium (Fluo-4, FLIPR) activation of TRPA1V1 cells (co-expressing TRPA1 and TRPV1) by GRAS compounds; type: cell-based, human;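 note: HEK293 cells co-expressing TRPA1 and TRPV1, fluorescence read at 488/514 nm after baseline subtraction, recorded every 2 s over 10 min, ionomycin 10 µM and buffer as controls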
[1] = Table 1(a), 100 μM (*), relative to AITC 30 μM
[2] = Table 1(c), 1 mM, relative to AITC 30 μM
[3] = Table 1(a), 1 mM, relative to AITC 30 μM, average of three plates
[4] = Table 1(a), 1 mM, relative to capsaicin 350 nM, average of three plates
[5] = Table 1(b), 1 mM, relative to AITC 30 μM
[6] = Table 1(b), 1 mM, relative to capsaicin 350 nM
[7] = Table 1(d), 100 μM (*), relative to AITC 30 μM
[8] = Table 1(e), 100 μM (*), relative to AITC 30 μM

Structure (SMILES): O=Cc1ccc(O)cc1 [4-Hydroxybenzaldehyde]
- activation at 100 µM (human TRPA1; [1]): 80.4%
- activation at 1000 µM (human TRPA1; [2]): 63%
- activation at 100 µM (human TRPV1; Table 1(a), 100 μM (*), relative to capsaicin 350 nM): 123%
- A1V1 activation, % of agonist value (TRPA1V1; [1]): 163.2%
- A1V1 activation, % of agonist value (TRPA1V1; [2]): 60.3%

Structure (SMILES): CCCCCCCCCCCCCCCC(=O)OC/C=C(C)/C=C/C=C(C)/C=C/C1=C(C)CCCC1(C)C [Retinol palmitate]
- activation at 1000 µM (human TRPA1; [3]): 76.4%
- activation at 1000 µM (human TRPV1; [4]): 32.8%
- A1V1 activation, % of agonist value (TRPA1V1; [3]): 76.97%

Structure (SMILES): CC/C=C\CCCCO [5-Octen-1-ol, (Z)]
- A1 activation, % of agonist value (human TRPA1; [3]): 62.30%
- V1 activation, % of agonist value (human TRPV1; [4]): 20.50%
- A1V1 activation, % of agonist value (TRPA1V1; [3]): 69.24%

Structure (SMILES): CC/C=C\C/C=C\C/C=C\CCCCCCCC(=O)OC [Methyl linolenate]
- activation at 1000 µM (human TRPA1; [3]): 108%
- activation at 1000 µM (human TRPV1; [4]): 31%
- A1V1 activation, % of agonist value (TRPA1V1; [3]): 104%

Structure (SMILES): CC(CC=O)CC(C)(C)C (stereo not drawn) [3,5,5-Trimethylhexanal]
- activation at 1000 µM (human TRPA1; [5]): 133%
- activation at 1000 µM (human TRPV1; [6]): 217%
- A1V1 activation, % of agonist value (TRPA1V1; [5]): 114.7%

Structure (SMILES): CCCC(=O)OC/C=C(\C)CCC=C(C)C [Geranyl butyrate]
- activation at 1000 µM (human TRPA1; [3]): 76.9%
- activation at 1000 µM (human TRPV1; [4]): 28.9%
- A1V1 activation, % of agonist value (TRPA1V1; [3]): 76.26%

Structure (SMILES): CC(=O)C(C)S (stereo not drawn) [3-Mercaptobutanone, 3-Mercapto-2-butanone]
- activation at 1000 µM (human TRPA1; [5]): 50.4%
- activation at 100 µM (human TRPA1; [7]): 68.9%
- activation at 1000 µM (human TRPV1; [6]): 63.8%
- A1V1 activation, % of agonist value (TRPA1V1; [5]): 80.9%
- A1V1 activation, % of agonist value (TRPA1V1; [7]): 53.3%

Structure (SMILES): CC(C=O)Cc1ccc2c(c1)OCO2 (stereo not drawn) [Helional]
- A1 activation, % of agonist value (human TRPA1; [3]): 78.00%
- V1 activation, % of agonist value (human TRPV1; [4]): 23.38%
- A1V1 activation, % of agonist value (TRPA1V1; [3]): 71.85%

Structure (SMILES): O=Cc1cc2ccccc2o1 [2-Benzofurancarboxaldehyde]
- activation at 1000 µM (human TRPA1; [3]): 91%
- activation at 1000 µM (human TRPV1; [4]): 57.6%
- A1V1 activation, % of agonist value (TRPA1V1; [3]): 102.3%

Structure (SMILES): COC(=O)C1CCCCC1 [Methyl cyclohexanecarboxylate]
- activation at 1000 µM (human TRPA1; [5]): 45.5%
- activation at 1000 µM (human TRPV1; [6]): 69.5%
- A1V1 activation, % of agonist value (TRPA1V1; [5]): 85.17%

Structure (SMILES): CC(C)=CCCC(C)CCO (stereo not drawn) [Citronellol]
- activation at 1000 µM (human TRPA1; [5]): 102%
- activation at 1000 µM (human TRPV1; [6]): 106%
- A1V1 activation, % of agonist value (TRPA1V1; [5]): 34.4%

Structure (SMILES): CC1=C(CC=O)C(C)(C)CCC1 [Beta-Cyclohomocitral]
- A1 activation, % of agonist value (human TRPA1; [3]): 81.44%
- V1 activation, % of agonist value (human TRPV1; [4]): 61.74%
- A1V1 activation, % of agonist value (TRPA1V1; [3]): 66.79%

Structure (SMILES): O=C(O)CC1CCCCC1 [Cyclohexaneacetic acid]
- activation at 1000 µM (human TRPA1; [3]): 20.6%
- activation at 1000 µM (human TRPV1; [4]): 56.6%
- A1V1 activation, % of agonist value (TRPA1V1; [3]): 61.28%

Structure (SMILES): c1ccc(CCCc2ccccn2)cc1 [2-(3-Phenylpropyl)pyridine]
- activation at 1000 µM (human TRPA1; [3]): 76%
- activation at 1000 µM (human TRPV1; [4]): 21.5%
- A1V1 activation, % of agonist value (TRPA1V1; [3]): 74.53%

Structure (SMILES): CC1=C(O)C(=O)CO1 [4-Hydroxy-5-methyl-3-furanone]
- activation at 1000 µM (human TRPA1; [3]): 58%
- activation at 1000 µM (human TRPV1; [4]): 40.5%
- A1V1 activation, % of agonist value (TRPA1V1; [3]): 38%

Structure (SMILES): COc1cc(/C=C/C(=O)CC(=O)/C=C/c2ccc(O)c(OC)c2)ccc1O [Curcumin]
- activation at 1000 µM (human TRPA1; [5]): 95.3%
- activation at 100 µM (human TRPA1; [8]): 102%
- activation at 1000 µM (human TRPV1; [6]): 43.2%
- A1V1 activation, % of agonist value (TRPA1V1; [5]): 171.6%
- A1V1 activation, % of agonist value (TRPA1V1; [8]): 150.3%

Structure (SMILES): CCCCC=CC(C)=O [3-Octen-2-one]
- activation at 1000 µM (human TRPA1; [3]): 52.7%
- activation at 1000 µM (human TRPV1; [4]): 30%
- A1V1 activation, % of agonist value (TRPA1V1; [3]): 45.60%

Structure (SMILES): CC1=NC(C)OC1C (stereo not drawn) [2,4,5-Trimethyl-3-oxazoline]
- activation at 100 µM (human TRPA1; Table 1(i), 100 μM (*), relative to AITC 30 μM, […]): 2.1%
- activation at 100 µM (human TRPV1; Table 1(i), 100 μM (*), relative to capsaicin 350 nM, […]): 101%
- TRPV1 activation selectivity, in words (human TRPV1; statement in description, see Table 1(i)): TRPV1 activators which do not modulate TRPA1 or TRPA1V1
- A1V1 activation, % of agonist value (TRPA1V1; Table 1(i), 100 μM (*), relative to AITC 30 μM or capsaicin 350 nM depending on compound, […]): 4.1%

Structure (SMILES): CC(O)CCc1ccccc1 (stereo not drawn) [4-Phenyl-2-butanol]
- activation at 1000 µM (human TRPA1; [5]): 58.8%
- activation at 1000 µM (human TRPV1; [6]): 37.9%
- A1V1 activation, % of agonist value (TRPA1V1; [5]): 81.29%

Structure (SMILES): CCCCCCCCC(=O)NCc1ccc(O)c(OC)c1 [Nonivamide, N-Vanillylnonanamide]
- activation at 100 µM (human TRPA1): 69%
- activation at 100 µM (human TRPV1): 65.5%
- activation at 1000 µM (human TRPV1): 91.4%
- A1V1 activation, % of agonist value (TRPA1V1; Table 1(g), 1 mM, relative to capsaicin 350 nM): 135.6%
- A1V1 activation, % of agonist value (TRPA1V1; Table 1(i), 100 μM (*), relative to AITC 30 μM or capsaicin 350 nM depending on compound, values less than 20-25% considered inactive): 1.2%

Structure (SMILES): CCCc1ccccc1O [2-Propylphenol]
- activation at 1000 µM (human TRPA1; [3]): 126%
- activation at 1000 µM (human TRPV1; [4]): 96.9%
- A1V1 activation, % of agonist value (TRPA1V1; [3]): 183.8%

Structure (SMILES): CCCCc1ccco1 [2-Butylfuran]
- activation at 1000 µM (human TRPA1; [3]): 68.5%
- activation at 1000 µM (human TRPV1; [4]): 20.2%
- A1V1 activation, % of agonist value (TRPA1V1; [3]): 62.77%

Structure (SMILES): OCCCCCc1ccccc1 [5-Phenyl-1-pentanol]
- activation at 1000 µM (human TRPA1; [5]): 119%
- activation at 1000 µM (human TRPV1; [6]): 113%
- A1V1 activation, % of agonist value (TRPA1V1; [5]): 52.1%

Structure (SMILES): CCOC(=O)C(O)Cc1ccccc1 (stereo not drawn) [Ethyl 2-hydroxy-3-phenylpropanoate]
- activation at 1000 µM (human TRPA1; [3]): 95.6%
- activation at 1000 µM (human TRPV1; [4]): 29.2%
- A1V1 activation, % of agonist value (TRPA1V1; [3]): 90.76%

Structure (SMILES): O=C1NS(=O)(=O)c2ccccc21 [Saccharin]
- activation at 1000 µM (human TRPA1): 92.6%
- activation at 1000 µM (human TRPV1): 80.8%
- A1V1 activation, % of agonist value (TRPA1V1): 93.25%

Structure (SMILES): C=CCc1cccc(OC)c1O [o-Eugenol]
- A1 activation, % of agonist value (human TRPA1; [3]): 128.4%
- V1 activation, % of agonist value (human TRPV1; [4]): 64.5%
- A1V1 activation, % of agonist value (TRPA1V1; [3]): 158.3%

Reference: US9427415B2, “Methods and compositions for modifying sensorial perception” (The Procter & Gamble Company, priority 2014, dated 2016)
